These results are taken from patent US5424185A, “Human high-affinity neurotransmitter uptake system” (Baylor College of Medicine, priority 1990, dated 1995).

The test system of series [1] is Cultured Astrocytes (rat). The following applies: read-out: Representative IC50, Cultured Astrocytes (rat); literature values; cited from earlier work.
In a further series the test system is Rat Synaptosomes. The following applies: literature values; read-out: Representative IC50, Rat Synaptosomes; cited from earlier work.
The target in series [2] is T1, human 5HT transporter (L-S2 cells) (Homo sapiens, UniProt P31645).
T1 construct: expressed in transfected cells; host or cells: mouse L-M fibroblasts (ATCC CCL 1.2) transfected with total human genomic DNA and pSV2neo; clone L-S2
Briefly: [3H]-5-HT uptake by L-S2 cells. The class given is cell-based. As to the method: (§1) L-S1 and L-M cells were preplated into 96-well culture plates. For uptake assays, the growth medium was removed from each well and the cells rinsed several times with oxygenated Ringer's buffer supplemented with 0.5 mM pargyline and 0.5 mM ascorbate. […] The radioligand was added to a final concentration of 0.1 μM and incubated with the cells at 37° C. for 40 minutes. The incubation mixture was then removed and each well was washed three times at room temperature with Ringer's buffer. The cells remaining in the wells were lysed with 1% sodium dodecyl sulphate (SDS) and transferred to counting vials containing 5 ml of ACS scintillant (Amersham), for liquid scintillation spectrometry. For each assay, 6-8 parallel sets of wells were assayed simultaneously.
(§2) Non-specific activity was determined from parallel assays carried out at 0° C. Initial velocities were calculated in terms of pmol/mg protein/min by subtracting velocity values obtained at 0° C. from those obtained at 37° C.
(§3) Cells were assayed in the presence of each inhibitor for 40 minutes at 37° C., washed with Ringer's buffer and prepared for counting as previously described. Five confluent wells were assayed at each inhibitor concentration. The IC50 value for each inhibitor was determined by plotting the percent activity against the logarithm of inhibitor concentration. Measured levels of uptake in the presence of inhibitors were expressed as the percentage of maximal uptake (100 %) in the absence of inhibitor.

The subject of series [3] is L-M cells. Nature of the series: [3H]-5-HT uptake by untransfected L-M cells. The class given is cell-based, mouse. The protocol:
as §1, with “For each assay, 6-8 parallel sets of wells were assayed simultaneously.” left out
as §2
Cells were assayed in the presence of each inhibitor for 40 minutes at 37° C., washed with Ringer's buffer and prepared for counting as previously described. […] The IC50 value for each inhibitor was determined by plotting the percent activity against the logarithm of inhibitor concentration. Measured levels of uptake in the presence of inhibitors were expressed as the percentage of maximal uptake (100 %) in the absence of inhibitor.

The target of series [4] is T2, human 5HT transporter (L-S1 cells) (Homo sapiens, UniProt P31645).
T2 construct: expressed in transfected cells; host or cells: mouse L-M fibroblasts (ATCC CCL 1.2) transfected with total human genomic DNA and pSV2neo; clone L-S1
Nature of the series: [3H]-5-HT uptake by L-S1 cells. It is filed as cell-based. The protocol:
The cells were incubated at 37° C. for an additional 40 min.
L-S1 and L-M cells were preplated into 96-well culture plates. For uptake assays, the growth medium was removed from each well and the cells rinsed several times with oxygenated Ringer's buffer supplemented with 0.5 mM pargyline and 0.5 mM ascorbate. […] […] […] The cells remaining in the wells were lysed with 1% sodium dodecyl sulphate (SDS) and transferred to counting vials containing 5 ml of ACS scintillant (Amersham), for liquid scintillation spectrometry. For each assay, 6-8 parallel sets of wells were assayed simultaneously.
as §2, §3

For series [5], the system named is human L-glutamate transporter (L-Glul cells). Briefly: L-[3H]glutamate uptake by L-Glul cells. The class given is cell-based. The following applies: unlabelled neurotransmitters, EAA receptor ligands, co-transporter inhibitors. As to the method: Both L-Glul and L-M cells were assessed for their kinetic properties of [^3 H] Glu uptake, and the results were analyzed by fitting to Michaelis-Menten kinetics. This was done by incubating cells with differing concentrations of [^3 H] Glu (ranging from 0.05 to 2 μM) for 10 minutes, at both 37° C. and 0° C. The amount of [^3 H] Glu retained by the cells following incubation was then quantitated and converted (using the manufacturer's specific activity for [^3 H] Glu to the corresponding picomole-equivalent of the radioligand, for each concentration of radioligand at each temperature. Then, the pmol value is normalized by the length of incubation and the amount of protein corresponding to the number of cells assayed. The resulting value, expressed in units of pmol/min/mg protein, is the initial velocity value for each concentration of [^3 H] Glu at each temperature. The initial velocity measured at 37° C. represents total initial velocity; the initial velocity measured at 0° C. represents nonspecific initial velocity. The difference between these two velocity values is then the specific initial velocity, denoted by "V", for each concentration of [^3 H] Glu.
Various drugs specific for excitatory amino acid (EAA) receptor subtypes were assessed for their effects on [^3 H] Glu uptake by L-Glul cells.
Glu uptake by L-Glul cells.

Series [6] deals with T3, NCCc1c[nH]c2ccc(O)cc12.
T3 construct: expressed in transfected cells; host or cells: mouse L-M fibroblasts (ATCC CCL 1.2) transfected with total human genomic DNA and pSV2neo; clone L-S1
Nature of the series: [3H]-5-HT uptake by L-S1 cells. The class given is cell-based, human. The following applies: other: 10 min, 37° C. minus 0° C., Lineweaver-Burk.

A further series deals with Purified Synaptosomes. The following applies: literature value, reference printed beside it; read-out: Representative IC50, Purified Synaptosomes; cited from earlier work.
The next series concerns Synaptosomes. The following applies: literature values; read-out: Representative IC50, Synaptosomes; cited from earlier work.
The subject of another series is Human Platelets. The following applies: literature values; read-out: Representative IC50, Human Platelets; cited from earlier work.
The subject of series [7] is GABA transporter (L-GAB1 cells). Nature of the series: [3H]GABA uptake by L-GAB1 cells. It is filed as cell-based, human. The following applies: for effect of GABA uptake inhibitors on [3H]GABA uptake by L-GAB1 cells: inhibitor 1 to 100 μM; for inhibition of total [3H]GABA uptake by L-GAB1 cells: effect saturating by 100 μM. As to the method: Using concentrations of [^3 H] GABA ranging from 2 to 500 μM, the kinetic profile of GABA uptake was determined for both L-GAB1 and L-M cells. The initial velocity of GABA uptake was measured and plotted against the corresponding [^3 H] GABA concentration for both cell lines. […] The velocity profile for L-GAB1 cells was subtracted by that of L-M cells, and the resulting data used for a double-reciprocal plot of velocity-^1 against GABA concentration-^1. The velocity profile for L-M cells was also transformed into a double-reciprocal plot.
Several known inhibitors of high-affinity GABA uptake were used to examine their efficacies in inhibiting [^3 H] GABA uptake by L-GAB1 cells. […] Each of these agents was used at several concentrations ranging from 1 to 100 μM in assays of [^3 H] GABA uptake by L-GAB1 cells. […] GABA uptake by L-GAB1 cells.
L-GAB1 cells were also analyzed in terms of their ligand-specificity in the high-affinity GABA uptake mechanism.

Series [8] deals with neuronal and glial GABA uptake systems in the CNS. The following applies: literature, cited from earlier work; for IC50: neuronal and glial uptake systems, read-out: IC50, high-affinity GABA uptake in the CNS.
For series [9], the system named is L-M cells. The following applies: 2 to 500 μM [3H]GABA, low-affinity system.
The subject of series [10] is T4, NCCc1c[nH]c2ccc(O)cc12.
T4 construct: expressed in transfected cells; host or cells: mouse L-M fibroblasts (ATCC CCL 1.2) transfected with total human genomic DNA and pSV2neo; clone L-S2
Briefly: [3H]-5-HT uptake by L-S2 cells. It is filed as cell-based, human. The following applies: other: 10 min, 37° C. minus 0° C., Lineweaver-Burk.

In a further series the test system is Rabbit Platelets. The following applies: read-out: Representative IC50, Rabbit Platelets; literature value; cited from earlier work.
Setting [11] is: ligand 10 μM, 10 min preincubation, 0.1 μM [3H]-5HT, 40 min, 37° C. (FIG. 1).

“And” between values parts separate entries of the source, which are not always exact repeats. Equal entries are not always repeated. Where two headings read alike, the source gives them in different places. Bounds are passed on as bounds.

T2 sequence (P31645 whole entry): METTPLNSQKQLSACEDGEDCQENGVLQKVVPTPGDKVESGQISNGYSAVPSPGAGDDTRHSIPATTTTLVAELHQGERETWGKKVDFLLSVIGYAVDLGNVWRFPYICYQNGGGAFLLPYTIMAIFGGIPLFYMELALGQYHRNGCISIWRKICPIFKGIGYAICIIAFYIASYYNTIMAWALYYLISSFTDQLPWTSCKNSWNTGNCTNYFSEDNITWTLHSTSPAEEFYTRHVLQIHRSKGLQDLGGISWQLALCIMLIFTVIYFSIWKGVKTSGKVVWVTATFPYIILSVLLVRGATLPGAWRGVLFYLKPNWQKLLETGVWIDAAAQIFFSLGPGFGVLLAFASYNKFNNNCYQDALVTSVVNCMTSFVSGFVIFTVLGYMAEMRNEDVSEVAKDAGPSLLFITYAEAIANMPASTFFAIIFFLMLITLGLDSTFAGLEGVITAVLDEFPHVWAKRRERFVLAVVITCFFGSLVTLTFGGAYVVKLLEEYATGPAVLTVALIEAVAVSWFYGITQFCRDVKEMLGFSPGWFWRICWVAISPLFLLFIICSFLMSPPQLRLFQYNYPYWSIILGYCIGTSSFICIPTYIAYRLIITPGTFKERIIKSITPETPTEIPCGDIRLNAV
T1 sequence (P31645 whole entry): as above

Regarding `CNCCCN1c2ccccc2CCc2ccccc21` [Desipramine, desipramine], the IC50 – broadly, the concentration that gives 50% inhibition – in [1] is 0.62 µM.

With `NCCc1c[nH]c2ccc(O)cc12` [5-HT, serotonin], in the series on Rat Synaptosomes, the IC50 is 0.15 µM. Besides, in series [2] (kinetic assay, Lineweaver-Burk), the “effect of excess unlabelled 5-HT on [3H]5-HT uptake, L-S2” value is “significantly inhibited”. Moreover, the “effect of competing ligand on [3H]-5HT uptake, L-S2” value in series [2] (setting [11]) was “significantly inhibited”. The “effect on 5-HT uptake activity of untransfected L-M cells” value in the series on L-M cells [3] is reported as “unaffected”. In series [4] (kinetic assay, Lineweaver-Burk), the “effect of excess unlabelled 5-HT on [3H]5-HT uptake, L-S1” value was “significantly inhibited”. Moreover, the “effect of competing ligand on [3H]-5HT uptake, L-S1” value in series [4] (setting [11]) is listed as “significantly inhibited”. In addition, the “effect on [3H]Glu uptake by L-Glul cells” value in series [5] was “only unlabelled L-glutamate seems to mediate some inhibition”.

“human 5HT transporter (L-S1 cells) (Homo sapiens)”: in the series with NCCc1c[nH]c2ccc(O)cc12 [6], the Km (in general, the concentration of substrate that gives half-maximal velocity) worked out at 0.390 ± 0.096 µM and the Vmax (as a rule, the rate approached at saturating substrate) worked out at 2.14 ± 0.55 pmol/mg/min.

In the case of `CN(C)CCC=C1c2ccccc2CCc2ccccc21` [Amitriptyline, amitriptyline], the IC50 in series [1] is 0.14 µM.

Regarding `CN(C)CCCN1c2ccccc2CCc2ccccc21` [Imipramine, imipramine], in series [2], the “effect of competing ligand on [3H]-5HT uptake, L-S2” value is reported as “significantly inhibited”. In addition, the “mechanism of inhibition of 5-HT uptake, L-S2” value in series [2] was “competitive inhibition”. In addition, the IC50 was 0.21 µM in the series with Purified Synaptosomes, 0.1 µM in the series on Synaptosomes and 0.14 µM in series [1]. Besides, in the series with L-M cells [3], the “effect on 5-HT uptake activity of untransfected L-M cells” value is reported as “unaffected”. Also, the “effect of competing ligand on [3H]-5HT uptake, L-S1” value in series [4] was “significantly inhibited”.

As to `NCCc1c[nH]c2ccccc12` [Tryptamine, tryptamine], the IC50 with Rat Synaptosomes is 2.8 µM; in [2], 0.9 µM; in series [4], 0.13 µM; in the series with Human Platelets, 2.7 µM.

In the case of `NCCCC(=O)O` [GABA, γ-aminobutyric acid], the “transport Vmax of GABA, additional component in L-GAB1 cells” value in [7] (2 to 500 μM [3H]GABA, L-M profile subtracted) is 2.4 pmol/min/mg protein. Also, the Km in series [7] (2 to 500 μM [3H]GABA, L-M profile subtracted, read-out: transport Km of GABA, additional component in L-GAB1 cells) was 110 µM; in [7] (2 to 500 μM [3H]GABA, low-affinity system, read-out: transport Km of GABA, system common to L-M and L-GAB1, L-GAB1 cells), 697 µM; in series [8] (read-out: Km of high-affinity GABA transport systems in the CNS), < 25 µM and 50 to 100 µM; in the series on L-M cells [9] (read-out: transport Km of GABA, L-M cells) it was 697 µM. Besides, the “transport Vmax of GABA, system common to L-M and L-GAB1, L-GAB1 cells” value in series [7] (2 to 500 μM [3H]GABA, low-affinity system) is listed as 2.1 pmol/min/mg protein. The “transport Vmax of GABA, L-M cells” value in the series on L-M cells [9] was 2.1 pmol/min/mg protein.

For `O=C(O)[C@@H]1CNCC[C@@H]1O` (relative stereo) [4-cis-OHNA, 4-cis-hydroxynipecotic acid], the “effect of GABA uptake inhibitors on [3H]GABA uptake by L-GAB1 cells” value (“effect of GABA uptake inhibitors” below) in [7] was “without measurable effect”. Further, the 50% inhibitory concentration (IC50) in series [8] is 10 to 200 µM.

On to `c1ccc2c3c([nH]c2c1)CNCC3` [Tryptoline], for which the IC50 is 2.5 µM with Rat Synaptosomes, 8 µM in series [2], 4 µM in series [4] and 3.8 µM with Human Platelets. Also, the “inhibition of [3H]-5-HT uptake in words, L-S2” value in series [2] is recorded as “relatively ineffective”. Moreover, the “inhibition of [3H]-5-HT uptake in words, L-S1” value in series [4] is listed as “relatively ineffective”.

With `O=C(O)C1CCCNC1` (racemic) [NA, (±)nipecotic acid], in [7], the “inhibition of total [3H]GABA uptake by L-GAB1 cells” value is reported as “less than 20%” and the “effect of GABA uptake inhibitors” value is reported as “some effect”. The IC50 in series [8] is 10 to 200 µM.

Take `NCCC(N)C(=O)O` (stereo not drawn) [DABA, 2,4-diaminobutyric acid]: in series [7], the “inhibition of total [3H]GABA uptake by L-GAB1 cells” value is given as “less than 20%” and the “effect of GABA uptake inhibitors” value is reported as “some effect”. Further, the IC50 in [8] was 10 to 200 µM.

Consider `O=C(O)C1=CCCNC1` [Guvacine], for which, in series [7], the “effect of GABA uptake inhibitors” value was “without measurable effect”. For the same molecule, the half-maximal inhibitory concentration (IC50) in series [8] was 10 to 200 µM.

As to “human 5HT transporter (L-S2 cells) (Homo sapiens)”, in the series with NCCc1c[nH]c2ccc(O)cc12 [10], the Km is 0.234 ± 0.027 µM and the Vmax worked out at 1.33 ± 0.13 pmol/mg/min.

On to `COc1ccc2[nH]cc(CCN)c2c1` [5-methoxytryptamine], for which the results for the IC50 (in the series with Rat Synaptosomes; in [2]; in series [4]) were 25 µM, 1.5 µM and 3.5 µM, respectively.

In the case of `CNCCC=C1c2ccccc2CCc2ccccc21` [Nortriptyline, nortriptyline], the IC50 in the series with Rabbit Platelets is 0.9 µM.
